According to patent US20170107207A1, “AMINOPYRAZOLONE DERIVATIVE” (DAIICHI SANKYO COMPANY, LIMITED, priority 2014, published 2017):

Legend:
[1] = system: human lymphoma cell line RAMOS cells; test: Cell growth inhibition test using RAMOS cell, ATP assay (CellTiter-Glo); type: cell-based; settings: Homo sapiens, Ramos, 72 h, cultured 3 days, 50% growth inhibition concentration
How it was run: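 RAMOS cells seeded at 4000 cells/well with compound and cultured 3 days at 37° C, 5% CO2; viability by CellTiter-Glo luminescence. Growth rate T/C % = 100×[(B−C)/(A−C)] using day-0 and final readings; GI50 interpolated from the two concentrations bracketing 50% growth.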

[2] = biological target: T1, TIP48/TIP49 complex (Homo sapiens, UniProt Q9Y230+Q9Y265); test: ATPase assay of TIP48/TIP49 complex (ADP-Glo); type: biochemical; settings: concentration at which the ATPase activity was inhibited by 50%
T1 construct: made in house; host or cells: E. coli
How it was run: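 Compound was tested over 10 four-fold concentrations, 200 μM down to 0.0007 μM at 2% DMSO, against E. coli-derived human rTIP48/rTIP49 for 1.5 h at room temperature, pH 7.5 with ATP. ATP hydrolysis was read as ADP-Glo luminescence, normalised to complex-only and no-complex wells, then fitted to dose-response curves.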

T1 sequence (Q9Y230 whole entry): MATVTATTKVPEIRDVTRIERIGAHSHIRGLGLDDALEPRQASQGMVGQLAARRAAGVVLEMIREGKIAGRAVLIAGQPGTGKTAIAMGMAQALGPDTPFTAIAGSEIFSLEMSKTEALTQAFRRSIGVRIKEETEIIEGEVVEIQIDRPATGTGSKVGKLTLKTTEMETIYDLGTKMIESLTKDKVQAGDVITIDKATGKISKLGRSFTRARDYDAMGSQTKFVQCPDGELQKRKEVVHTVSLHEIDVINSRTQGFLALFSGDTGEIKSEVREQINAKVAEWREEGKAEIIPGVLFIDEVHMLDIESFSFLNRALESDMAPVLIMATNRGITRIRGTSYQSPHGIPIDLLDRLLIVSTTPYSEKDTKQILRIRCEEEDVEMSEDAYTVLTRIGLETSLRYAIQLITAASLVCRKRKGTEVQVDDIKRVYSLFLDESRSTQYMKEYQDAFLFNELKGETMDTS
T1 sequence (Q9Y265 whole entry): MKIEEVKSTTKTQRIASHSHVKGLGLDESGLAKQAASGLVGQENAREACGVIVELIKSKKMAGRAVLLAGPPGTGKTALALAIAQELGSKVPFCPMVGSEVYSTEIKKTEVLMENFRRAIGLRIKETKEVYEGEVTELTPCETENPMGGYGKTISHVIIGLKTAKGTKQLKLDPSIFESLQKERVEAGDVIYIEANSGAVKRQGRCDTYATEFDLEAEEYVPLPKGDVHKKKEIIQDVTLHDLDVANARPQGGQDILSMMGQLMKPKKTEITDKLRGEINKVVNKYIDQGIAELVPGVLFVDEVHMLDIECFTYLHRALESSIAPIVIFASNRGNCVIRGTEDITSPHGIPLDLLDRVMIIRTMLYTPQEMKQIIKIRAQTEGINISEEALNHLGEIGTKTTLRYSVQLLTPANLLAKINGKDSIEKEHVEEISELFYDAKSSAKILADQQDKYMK

| GI50 [1] [nM] | IC50 [2] [nM] | SMILES |
| --- | --- | --- |
| 160 | 84 | CCOc1cc(F)c(Cl)cc1C(=O)NCC(C)(C)CC(=O)Nc1c([C@H](C)CN(C)C)n(C)n(-c2ccccc2)c1=O [Example 70, 5-Chloro-N-[4-({5-[(1R)-2-(dimethylamino)-1-methylethyl]-1-methyl-3-oxo-2-phenyl-2,3-dihydro-1H-pyrazol-4-yl}amino)-2,2-dimethyl-4-oxobutyl]-2-ethoxy-4-fluorobenzamide] |
| 510 | 80 | CCOc1ncc(Cl)cc1C(=O)NCC(C)(C)CC(=O)Nc1c([C@@H](C)CN(C)C)n(C)n(-c2ccccc2)c1=O [Example 72, 5-Chloro-N-[4-({5-[(1S)-2-(dimethylamino)-1-methylethyl]-1-methyl-3-oxo-2-phenyl-2,3-dihydro-1H-pyrazol-4-yl}amino)-2,2-dimethyl-4-oxobutyl]-2-ethoxypyridine-3-carboxamide] |
| 270 | 99 | COCOc1cc(Cl)c(Cl)cc1C(=O)NCC(C)(C)CC(=O)Nc1c(C(C)CN(C)C)n(C)n(-c2ccccc2)c1=O (stereo not shown) [Example 75, 4,5-Dichloro-N-[4-({5-[2-(dimethylamino)-1-methylethyl]-1-methyl-3-oxo-2-phenyl-2,3-dihydro-1H-pyrazol-4-yl}amino)-2,2-dimethyl-4-oxobutyl]-2-(methoxymethoxy)benzamide] |
| 590 | 68 | CCOc1ccc(Cl)cc1C(=O)NCC(C)(C)CC(=O)Nc1c(C(C)CNC)n(C)n(-c2ccccc2)c1=O (stereo not shown) [Example 76, 5-Chloro-N-[2,2-dimethyl-4-({1-methyl-5-[1-methyl-2-(methylamino)ethyl]-3-oxo-2-phenyl-2,3-dihydro-1H-pyrazol-4-yl}amino)-4-oxobutyl]-2-ethoxybenzamide] |
| 140 | 51 | CCOc1ccc(Cl)cc1C(=O)NCC(C)(C)CC(=O)Nc1c(C(CN(C)C)OC)n(C)n(-c2ccccc2)c1=O (stereo not shown) [Example 79, 5-Chloro-N-[4-({5-[2-(dimethylamino)-1-methoxyethyl]-1-methyl-3-oxo-2-phenyl-2,3-dihydro-1H-pyrazol-4-yl}amino)-2,2-dimethyl-4-oxobutyl]-2-ethoxybenzamide] |
| 170 | 140 | CCOc1cc(F)c(Cl)cc1C(=O)NCC(C)(C)CC(=O)Nc1c(C(CN(C)C)OC)n(C)n(-c2ccccc2)c1=O (stereo not shown) [Example 80, 5-Chloro-N-[4-({5-[2-(dimethylamino)-1-methoxyethyl]-1-methyl-3-oxo-2-phenyl-2,3-dihydro-1H-pyrazol-4-yl}amino)-2,2-dimethyl-4-oxobutyl]-2-ethoxy-4-fluorobenzamide] |
| 120 | 52 | CCOc1ccc(Cl)cc1C(=O)NCC(C)(C)CC(=O)Nc1c(C(C)C(C)(C)N(C)C)n(C)n(-c2ccccc2)c1=O (stereo not shown) [Example 87, 5-Chloro-N-[4-({5-[2-(dimethylamino)-1,2-dimethylpropyl]-1-methyl-3-oxo-2-phenyl-2,3-dihydro-1H-pyrazol-4-yl}amino)-2,2-dimethyl-4-oxobutyl]-2-ethoxybenzamide] |
| 170 | 90 | CCOc1cc(F)c(Cl)cc1C(=O)NCC(C)(C)CC(=O)Nc1c(CCCCN(C)C)n(C)n(-c2ccccc2)c1=O [Example 89, 5-Chloro-N-[4-({5-[4-(dimethylamino)butyl]-1-methyl-3-oxo-2-phenyl-2,3-dihydro-1H-pyrazol-4-yl}amino)-2,2-dimethyl-4-oxobutyl]-2-ethoxy-4-fluorobenzamide] |
| 560 | 26 | CCOc1cc(F)c(Cl)cc1C(=O)NCC(C)(C)CC(=O)Nc1c(C)n(C)n(-c2ccccc2)c1=O [Example 92, 5-Chloro-N-{4-[(1,5-dimethyl-3-oxo-2-phenyl-2,3-dihydro-1H-pyrazol-4-yl)amino]-2,2-dimethyl-4-oxobutyl}-2-ethoxy-4-fluorobenzamide] |
| 140 | 14 | COCOc1cc(F)c(Cl)cc1C(=O)NCC(C)(C)CC(=O)Nc1c(COC)n(C)n(-c2ccccc2)c1=O [Example 116, 5-Chloro-4-fluoro-2-(methoxymethoxy)-N-(4-{[5-(methoxymethyl)-1-methyl-3-oxo-2-phenyl-2,3-dihydro-1H-pyrazol-4-yl]amino}-2,2-dimethyl-4-oxobutyl)benzamide] |
| 140 | 460 | CCOc1cc(F)c(Cl)cc1C(=O)NCC(C)(C)CC(=O)Nc1c(C(C)OC)n(C)n(-c2ccccc2)c1=O (stereo not shown) [Example 122, 5-Chloro-2-ethoxy-4-fluoro-N-(4-{[5-(1-methoxyethyl)-1-methyl-3-oxo-2-phenyl-2,3-dihydro-1H-pyrazol-4-yl]amino}-2,2-dimethyl-4-oxobutyl)benzamide] |
| 120 | 39 | CCOc1cc(F)c(Cl)cc1C(=O)NCC(C)(C)CC(=O)Nc1c([C@H](C)OC)n(C)n(-c2ccccc2)c1=O [Example 123, 5-Chloro-2-ethoxy-4-fluoro-N-(4-{[5-((1S)-methoxyethyl)-1-methyl-3-oxo-2-phenyl-2,3-dihydro-1H-pyrazol-4-yl]amino}-2,2-dimethyl-4-oxobutyl)benzamide] |
| 140 | 38 | CCOc1cc(F)c(Cl)cc1C(=O)NCC(C)(C)CC(=O)Nc1c([C@@H](C)OC)n(C)n(-c2ccccc2)c1=O [Example 124, 5-Chloro-2-ethoxy-4-fluoro-N-(4-{[5-((1R)-1-methoxyethyl)-1-methyl-3-oxo-2-phenyl-2,3-dihydro-1H-pyrazol-4-yl]amino}-2,2-dimethyl-4-oxobutyl)benzamide] |
| 140 | 36 | CCOc1ccc(Cl)cc1C(=O)NCC(C)(C)CC(=O)Nc1c(C(C)OC)n(C)n(-c2ccccc2)c1=O (stereo not shown) [Example 125, 5-Chloro-2-ethoxy-N-(4-{[5-(1-methoxyethyl)-1-methyl-3-oxo-2-phenyl-2,3-dihydro-1H-pyrazol-4-yl]amino}-2,2-dimethyl-4-oxobutyl)benzamide] |

More lines, now with the values behind:

| SMILES | GI50 [1] [nM] | IC50 [2] [nM] |
| --- | --- | --- |
| CCOc1ncc(Cl)cc1C(=O)NCC(C)(C)CC(=O)Nc1c(C(C)CN(C)C)n(C)n(-c2ccccc2)c1=O (stereo not shown) [Example 71, 5-Chloro-N-[4-({5-[2-(dimethylamino)-1-methylethyl]-1-methyl-3-oxo-2-phenyl-2,3-dihydro-1H-pyrazol-4-yl}amino)-2,2-dimethyl-4-oxobutyl]-2-ethoxypyridine-3-carboxamide] | 420 | 90 |
| CCOc1ncc(Br)cc1C(=O)NCC(C)(C)CC(=O)Nc1c(C(C)CN(C)C)n(C)n(-c2ccccc2)c1=O (stereo not shown) [Example 74, 5-Bromo-N-[4-({5-[2-(dimethylamino)-1-methylethyl]-1-methyl-3-oxo-2-phenyl-2,3-dihydro-1H-pyrazol-4-yl}amino)-2,2-dimethyl-4-oxobutyl]-2-ethoxypyridine-3-carboxamide] | 470 | 180 |
| CCOc1ncc(Cl)cc1C(=O)NCC(C)(C)CC(=O)Nc1c(C(C)CNC)n(C)n(-c2ccccc2)c1=O (stereo not shown) [Example 77, 5-Chloro-N-[2,2-dimethyl-4-({1-methyl-5-[1-methyl-2-(methylamino)ethyl]-3-oxo-2-phenyl-2,3-dihydro-1H-pyrazol-4-yl}amino)-4-oxobutyl]-2-ethoxypyridine-3-carboxamide] | 800 | 92 |
| CNCC(C)c1c(NC(=O)CC(C)(C)CNC(=O)c2cc(Cl)cc3cc(C)oc23)c(=O)n(-c2ccccc2)n1C (stereo not shown) [Example 78, 5-Chloro-N-[2,2-dimethyl-4-({1-methyl-5-[1-methyl-2-(methylamino)ethyl]-3-oxo-2-phenyl-2,3-dihydro-1H-pyrazol-4-yl}amino)-4-oxobutyl]-2-methylbenzofuran-7-carboxamide] | 480 | 70 |
| CCOc1ncc(Cl)cc1C(=O)NCC(C)(C)CC(=O)Nc1c(C(CN(C)C)OC)n(C)n(-c2ccccc2)c1=O (stereo not shown) [Example 81, 5-Chloro-N-[4-({5-[2-(dimethylamino)-1-methoxyethyl]-1-methyl-3-oxo-2-phenyl-2,3-dihydro-1H-pyrazol-4-yl}amino)-2,2-dimethyl-4-oxobutyl]-2-ethoxypyridine-3-carboxamide] | 410 | 210 |
| CCOc1ccc(Cl)cc1C(=O)NCC(C)(C)CC(=O)Nc1c(C(C)(C)CN(C)C)n(C)n(-c2ccccc2)c1=O [Example 84, 5-Chloro-N-[4-({5-[2-(dimethylamino)-1,1-dimethylethyl]-1-methyl-3-oxo-2-phenyl-2,3-dihydro-1H-pyrazol-4-yl}amino)-2,2-dimethyl-4-oxobutyl]-2-ethoxybenzamide] | 170 | 80 |
| Cc1cc2cc(Cl)cc(C(=O)NCC(C)(C)CC(=O)Nc3c(CCCCN(C)C)n(C)n(-c4ccccc4)c3=O)c2o1 [Example 90, 5-Chloro-N-[4-({5-[4-(dimethylamino)butyl]-1-methyl-3-oxo-2-phenyl-2,3-dihydro-1H-pyrazol-4-yl}amino)-2,2-dimethyl-4-oxobutyl]-2-methylbenzofuran-7-carboxamide] | 140 | 28 |
| CCOc1ccc(Cl)cc1C(=O)NCC(C)(C)C(F)C(=O)Nc1c(CCN(C)C)n(C)n(-c2ccccc2)c1=O (stereo not shown) [Example 91, 5-Chloro-N-[4-({5-[2-(dimethylamino)ethyl]-1-methyl-3-oxo-2-phenyl-2,3-dihydro-1H-pyrazol-4-yl}amino)-3-fluoro-2,2-dimethyl-4-oxobutyl]-2-ethoxybenzamide] | 180 | 110 |
| COCOc1ccc(Cl)cc1C(=O)NCC(C)(C)CC(=O)Nc1c(COC)n(C)n(-c2ccccc2)c1=O [Example 115, 5-Chloro-2-(methoxymethoxy)-N-(4-{[5-(methoxymethyl)-1-methyl-3-oxo-2-phenyl-2,3-dihydro-1H-pyrazol-4-yl]amino}-2,2-dimethyl-4-oxobutyl)benzamide] | 130 | 41 |
